Values after ≈ are worked out from the molar mass of the structure shown.
Columns and labels:
[1] = test system: Mycobacterium tuberculosis; assay: Antimycobacterial activity against Mycobacterium tuberculosis H37Rv ATCC 27294 assessed as growth inhibition after 5 days by microdilution method; assay type: functional; conditions: H37Rv ATCC 27294, 120 h
[2] = test system: Mycobacterium tuberculosis; assay: Antimycobacterial activity against Mycobacterium tuberculosis H37Rv ATCC 27294 assessed as reduction of colony forming units by microdilution method; assay type: functional
[3] = Inhibition of Mycobacterium smegmatis DprE1 expressed in Escherichia coli Rosetta cells using farnesyl-phosphoryl-beta-D-ribofuranose as substrate by fluorescence analysis; set-up: species or system Mycolicibacterium smegmatis
[4] = test system: Mycobacterium tuberculosis; assay: Antimycobacterial activity against Mycobacterium tuberculosis Beijing (E-47/94) assessed as growth inhibition after 2 to 3 weeks by turbidometry; assay type: functional
[5] = test system: Mycobacterium tuberculosis; assay: Antimycobacterial activity against Mycobacterium tuberculosis H37Rv ATCC 27294 assessed as growth inhibition after 2 to 3 weeks by turbidometry; assay type: functional
[6] = test system: Mycobacterium tuberculosis; assay: Antimycobacterial activity against Mycobacterium tuberculosis D-211 assessed as growth inhibition after 2 to 3 weeks by turbidometry; assay type: functional
[7] = test system: Mycobacterium tuberculosis; assay: Antimycobacterial activity against wild type Mycobacterium tuberculosis H37Rv assessed as growth inhibition by resazurin assay; assay type: functional
[8] = Aqueous kinetic solubility of the compound in 0.1 M phosphate buffer at pH 7.4 by UV-MS analysis; assay type: physicochemical; conditions: read-out: Kinetic_solubility
[9] = Octanol-water partition coefficient, log D of the compound by shake flask method; assay type: physicochemical
[10] = Fraction unbound in human plasma at 20 uM by equilibrium dialysis technique; assay type: ADME, cell-free
[11] = Selectivity index, ratio of IC50 human A549 cells to MIC for Mycobacterium tuberculosis; assay type: toxicity, cell-based; conditions: read-out: Selectivity Index
[12] = Inhibition of Mycobacterium smegmatis DprE1 C394G mutant expressed in Escherichia coli Rosetta cells using farnesyl-phosphoryl-beta-D-ribofuranose as substrate by fluorescence analysis; set-up: species or system Mycolicibacterium smegmatis
[13] = Inhibition of Mycobacterium smegmatis DprE1 Y321H mutant expressed in Escherichia coli Rosetta cells using farnesyl-phosphoryl-beta-D-ribofuranose as substrate by fluorescence analysis; set-up: species or system Mycolicibacterium smegmatis
[14] = test system: Mycolicibacterium smegmatis; assay: Ratio of IC50 for Mycobacterium smegmatis DprE1 Y321H mutant expressed in Escherichia coli Rosetta cells to IC50 for wild type Mycobacterium smegmatis DprE1 expressed in Escherichia coli Rosetta cells
[15] = test system: Mycolicibacterium smegmatis; assay: Ratio of IC50 for wild type Mycobacterium smegmatis DprE1 expressed in Escherichia coli Rosetta cells to IC50 for Mycobacterium smegmatis DprE1 C394G mutant expressed in Escherichia coli Rosetta cells
[16] = test system: Mycobacterium tuberculosis; assay: Antimycobacterial activity against Mycobacterium tuberculosis H37Rv infected in human THP-1 cells assessed as log reduction in colony forming units at 16 uM incubated for 7 days measured after 21 to 28 days; assay type: functional
[17] = test system: Mycolicibacterium smegmatis; assay: Ratio of IC50 for Mycobacterium smegmatis DprE1 C394G mutant expressed in Escherichia coli Rosetta cells to IC50 for wild type Mycobacterium smegmatis DprE1 expressed in Escherichia coli Rosetta cells
[18] = test system: Mycobacterium tuberculosis; assay: Antimycobacterial activity against Mycobacterium tuberculosis H37Rv assessed as bacterial killing by two-fold serial dilution method; assay type: functional, organism-based; conditions: TDE = time-dependent effect
[19] = test system: Mycobacterium tuberculosis; assay: Antimycobacterial activity against Mycobacterium tuberculosis H37Rv assessed as log reduction in colony forming units on day 10 by two-fold serial dilution method; assay type: functional

SMILES	MIC [1]	MBC [2]	IC50 [3]	MIC [7]	further results
Cc1ccc(-n2nc(C)c3cc(CNCc4cccc(C(F)(F)F)c4)c(=O)[nH]c32)cc1	12.5 µM (≈ 5.33 µg/mL)	12.5 µM (≈ 5.33 µg/mL)	600 nM		
Cc1nn(-c2ccccc2)c2[nH]c(=O)c(CNCc3cccc(C(F)(F)F)c3)cc12	3.1 µM (≈ 1.28 µg/mL)	8.5 µM (≈ 3.51 µg/mL)	400 nM	> 0.1 µM	MIC [4]: 3.1 µM (≈ 1.28 µg/mL); MIC [5]: 3.1 µM (≈ 1.28 µg/mL); MIC [6]: 3.1 µM (≈ 1.28 µg/mL)
Cc1ccc(C(F)(F)F)nc1CNCc1cc2c(C3CC3)nn(-c3ccccc3)c2[nH]c1=O	1.5 µM (≈ 0.68 µg/mL)	1.6 µM (≈ 0.726 µg/mL)	10 nM		solubility kinetic [8]: 1 µM (≈ 0.453 µg/mL); logD [9]: 3.4; fraction unbound at 20 µM [10]: < 0.01; selectivity ratio [11]: 10
O=c1[nH]c2c(cc1CNCc1cccc(C(F)(F)F)n1)c(C1CC1)nn2-c1ccccc1	3.1 µM (≈ 1.36 µg/mL)	5.6 µM (≈ 2.46 µg/mL)	50 nM	> 0.1 µM	IC50 [12]: 20 nM; IC50 [13]: 6100 nM; Ratio IC50 [14]: 40; solubility kinetic [8]: 153 µM (≈ 67.2 µg/mL); logD [9]: 3.2; fraction unbound at 20 µM [10]: 0.011; selectivity ratio [11]: 20; Ratio IC50 [15]: 6
C[C@H]1COC2(CCN(c3nc(=O)c4cc(C(F)(F)F)cc([N+](=O)[O-])c4s3)CC2)O1 [BTZ-043]			5 nM	0.003 µM (≈ 0.00129 µg/mL)	
Cc1nn(-c2ccccc2)c2[nH]c(=O)c(C(=O)NCc3cccc(C(F)(F)F)c3)cc12	> 100 µM		1000 nM		
CC[C@@H](CO)NCCN[C@@H](CC)CO [ETHAMBUTOL]					MIC [4]: 2 µM (≈ 0.409 µg/mL); MIC [5]: 2 µM (≈ 0.409 µg/mL); MIC [6]: 2 µM (≈ 0.409 µg/mL)
Cc1cccc(CNCc2cc3c(C)nn(-c4ccccc4)c3[nH]c2=O)c1	100 µM (≈ 35.8 µg/mL)	100 µM (≈ 35.8 µg/mL)	2800 nM		
CO[C@H]1/C=C/O[C@@]2(C)Oc3c(C)c(O)c4c(O)c(c(/C=N/N5CCN(C)CC5)c(O)c4c3C2=O)NC(=O)/C(C)=C\C=C\[C@H](C)[C@H](O)[C@@H](C)[C@@H](O)[C@@H](C)[C@H](OC(C)=O)[C@@H]1C [RIFAMPIN]					MIC [4]: 0.02 µM (≈ 0.0165 µg/mL); MIC [5]: 0.02 µM (≈ 0.0165 µg/mL); MIC [6]: 0.02 µM (≈ 0.0165 µg/mL)
O=c1[nH]c2c(cc1CNCc1cccc(C(F)(F)F)c1F)c(C1CC1)nn2-c1ccccc1	1.6 µM (≈ 0.73 µg/mL)	4.1 µM (≈ 1.87 µg/mL)	< 5 nM	0.003 µM (≈ 0.00137 µg/mL)	IC50 [12]: 60 nM; IC50 [13]: 8200 nM; Ratio IC50 [14]: 38; Ratio IC50 [15]: 4
Cc1nn(C)c2[nH]c(=O)c(CNCc3cccc(C(F)(F)F)c3)cc12	> 100 µM		> 100000 nM		
CN[C@@H]1[C@H](O[C@H]2[C@H](O[C@H]3[C@H](O)[C@@H](O)[C@H](N=C(N)N)[C@@H](O)[C@@H]3N=C(N)N)O[C@@H](C)[C@]2(O)C=O)O[C@@H](CO)[C@H](O)[C@H]1O [STREPTOMYCIN]					MIC [4]: 0.3 µM (≈ 0.174 µg/mL); MIC [5]: 0.3 µM (≈ 0.174 µg/mL); MIC [6]: 0.3 µM (≈ 0.174 µg/mL)
Cc1nn(-c2ccccc2)c2[nH]c(=O)c(CNCc3ccccc3)cc12	> 100 µM		1400 nM		
CCOC(=O)NC(=O)c1ccsc1NC(=O)c1nc2ccccc2s1				0.5 µM (≈ 0.188 µg/mL)	
Cc1ccc(CNCc2cc3c(C)nn(-c4ccccc4)c3[nH]c2=O)cc1C	25 µM (≈ 9.31 µg/mL)	50 µM (≈ 18.6 µg/mL)	1200 nM		
NNC(=O)c1ccncc1 [ISONIAZID]				5 µM (≈ 0.686 µg/mL)	MIC [4]: 0.2 µM (≈ 0.0274 µg/mL); MIC [5]: 0.2 µM (≈ 0.0274 µg/mL); MIC [6]: 0.2 µM (≈ 0.0274 µg/mL)

SMILES	MIC [1]	MBC [2]	IC50 [3]	MIC [7]	further results
Cc1nn(-c2ccccc2)c2[nH]c(=O)c(CNCc3cccc(C#N)c3)cc12	> 100 µM		2600 nM		
Cc1nn(-c2ccccc2)c2[nH]c(=O)c(CNCc3cccc(F)c3)cc12	75 µM (≈ 27.2 µg/mL)	100 µM (≈ 36.2 µg/mL)	2000 nM		
COc1ncnc(Cn2cc(C(=O)NCCF)c3ncccc32)c1C			5 nM	1.51 µM (≈ 0.52 µg/mL)	
Cc1ccc(C(F)(F)F)cc1CNCc1cc2c(C3CC3)nn(-c3ccccc3)c2[nH]c1=O	0.1 µM (≈ 0.0452 µg/mL)	< 0.5 µM	10 nM	0.002 µM (≈ 0.000905 µg/mL)	log10cfu [16]: 1; IC50 [13]: 7400 nM; Ratio IC50 [17]: 1; Ratio IC50 [14]: 740; solubility kinetic [8]: < 1 µM; logD [9]: 3.9; fraction unbound at 20 µM [10]: < 0.01; selectivity ratio [11]: > 250; Activity [18]: tde; log10cfu [19]: >4
Cc1nn(-c2ccccn2)c2[nH]c(=O)c(CNCc3cccc(C(F)(F)F)c3)cc12	> 100 µM				
Cc1nn(-c2ccccc2)c2c1cc(CNCc1cccc(C(F)(F)F)c1)c(=O)n2C	> 100 µM		> 10000 nM		
Cc1ccc(C(F)(F)F)cc1CNCc1cc2c(C)nn(-c3ccccc3)c2[nH]c1=O	0.8 µM (≈ 0.341 µg/mL)	1.2 µM (≈ 0.512 µg/mL)	7 nM		IC50 [12]: 10 nM; IC50 [13]: 1500 nM; Ratio IC50 [17]: 1; Ratio IC50 [14]: 150; solubility kinetic [8]: 55 µM (≈ 23.5 µg/mL); logD [9]: 3.7; fraction unbound at 20 µM [10]: < 0.01; selectivity ratio [11]: 20
CC1COc2c(N3CCN(C)CC3)c(F)cc3c(=O)c(C(=O)O)cn1c23 (stereo unspecified) [OFLOXACIN]					MIC [4]: 0.7 µM (≈ 0.253 µg/mL); MIC [5]: 0.7 µM (≈ 0.253 µg/mL); MIC [6]: 0.7 µM (≈ 0.253 µg/mL)
Cc1ccc(C(F)(F)F)cc1CNCc1cc2c(C(C)C)nn(-c3ccccc3)c2[nH]c1=O	0.4 µM (≈ 0.182 µg/mL)	< 0.5 µM	< 5 nM		solubility kinetic [8]: 10 µM (≈ 4.54 µg/mL); logD [9]: > 4.4; fraction unbound at 20 µM [10]: < 0.01; selectivity ratio [11]: 35
C[C@@H](NC(=O)c1cc([N+](=O)[O-])cc(C(F)(F)F)c1)c1ccccc1				0.943 µM (≈ 0.319 µg/mL)	
O=c1[nH]c2c(cc1CNCc1cc(C(F)(F)F)ccc1F)c(C1CC1)nn2-c1ccccc1	1.6 µM (≈ 0.73 µg/mL)	4.4 µM (≈ 2.01 µg/mL)	40 nM	0.002 µM (≈ 0.000913 µg/mL)	IC50 [12]: 10 nM; IC50 [13]: 4500 nM; Ratio IC50 [14]: 107; Ratio IC50 [15]: 4
COc1nc2c(cc1CNCc1cccc(C(F)(F)F)c1)c(C)nn2-c1ccccc1	> 100 µM		> 10000 nM		
Cc1nn(-c2ccccc2)c2[nH]c(=O)c(CN3CCc4ccc(C(F)(F)F)cc4C3)cc12	> 100 µM		6200 nM		
Cc1nn(-c2ccccc2)c2[nH]c(=O)c(CN(C)Cc3cccc(C(F)(F)F)c3)cc12	1 µM (≈ 0.426 µg/mL)		60 nM		
O=c1[nH]c2c(cc1CNCc1cccc(C(F)(F)F)c1)c(C1CC1)nn2-c1ccccc1	1.5 µM (≈ 0.658 µg/mL)	2.8 µM (≈ 1.23 µg/mL)	40 nM	> 0.1 µM	MIC [4]: 1.6 µM (≈ 0.702 µg/mL); MIC [5]: 1.6 µM (≈ 0.702 µg/mL); MIC [6]: 1.6 µM (≈ 0.702 µg/mL); solubility kinetic [8]: 1 µM (≈ 0.438 µg/mL); logD [9]: 3.9; fraction unbound at 20 µM [10]: 0.01; selectivity ratio [11]: 10

Source: ChEMBL document CHEMBL3259779, “Discovery of pyrazolopyridones as a novel class of noncovalent DprE1 inhibitor with potent anti-mycobacterial activity” (J Med Chem, 2014)
